Experiments:
[1] = test system: REL-A (p65) nuclear translocation in HeLa cells; test: REL-A (p65) nuclear translocation assay in HeLa cells, TNF-α stimulated (classical NF-kB signaling), high content imaging; assay type: cell-based; details: Homo sapiens, HeLa, compound 4.5 h, then 10 ng/mL TNF-α for 30 minutes, read-out: REL-A HeLa Transloc Assay (IC50)
Method: (§1) Several assays were developed to profile the cellular activities of NIK inhibitors.
(§2) (2) A second set of cell assay are used to define the selectivity of NIK inhibitors toward inhibition of classical vs. non-classical NF-kB signaling and rely on quantification of the nuclear translocation of p52 (NF-kB2) and REL-A (p65) using high content cellular imaging. For the p52 (non-classical NF-kB signaling) nuclear translocation assay, HeLa cells are treated with different concentrations of compounds (0.2% DMSO final) in medium containing 10% fetal bovine serum and then stimulated with 100 ng/mL of an anti-lymphotoxin beta receptor antibody (R&D Systems) for 5 hours. In the REL-A nuclear translocation assay, HeLa cells are incubated with compounds (0.2% DMSO final) for 4.5 hours in medium containing 10% fetal bovine serum before stimulating them with 10 ng/mL tumor necrosis factor (TNF)-α (R&D Systems) for 30 minutes. Cells are fixed with 4% paraformaldehyde, permeabilized by adding 0.1% Triton X-100 in phosphate buffered saline, and then are incubated with either 2 ug/mL anti-p52 antibody (Millipore) or 400 ng/mL anti-REL-A (p65) antibody (Santa Cruz Biotechnology). Finally, the cells are incubated with an Alexa488-labeled secondary antibody (Invitrogen) and DRAQ5 DNA stain (Biostatus). Imaging is carried out using an Opera reader (Perkin Elmer) and data are analyzed with the aid of Acapella software (Perkin Elmer). The p52 or REL-Atranslocation into the nucleus is quantified by the ratio of the nuclear to cytoplasmic signal intensity. […] The compounds in listed in Table 1 have the corresponding inhibitory value (IC50 in micromolar) for NIK p52 Translocation Assay as set forth in Table 2.
(§3) The compounds in listed in Table 1 have the corresponding inhibitory values (IC50 in micromolar) for the Translocation Assays as set forth in Table 2.

[2] = molecular target: T1, nuclear factor-kappa B (NF-kB)-inducing kinase (NIK) (Homo sapiens, UniProt Q99558); test: NIK enzyme inhibition assay (Transcreener ADP fluorescence polarization, NIK ADP-FP); assay type: biochemical
T1 construct: made in house; host or cells: baculovirus-infected insect cells

[3] = test system: p52 (NF-kB2) nuclear translocation in HeLa cells; test: p52 (NF-kB2) nuclear translocation assay in HeLa cells, anti-lymphotoxin beta receptor antibody stimulated (non-classical NF-kB signaling), high content imaging; assay type: cell-based; details: Homo sapiens, 100 ng/mL anti-lymphotoxin beta receptor antibody for 5 hours, read-out: p52 HeLa Transloc Assay (IC50)
Method: as §1, §2, §3

T1 sequence (Q99558 whole entry): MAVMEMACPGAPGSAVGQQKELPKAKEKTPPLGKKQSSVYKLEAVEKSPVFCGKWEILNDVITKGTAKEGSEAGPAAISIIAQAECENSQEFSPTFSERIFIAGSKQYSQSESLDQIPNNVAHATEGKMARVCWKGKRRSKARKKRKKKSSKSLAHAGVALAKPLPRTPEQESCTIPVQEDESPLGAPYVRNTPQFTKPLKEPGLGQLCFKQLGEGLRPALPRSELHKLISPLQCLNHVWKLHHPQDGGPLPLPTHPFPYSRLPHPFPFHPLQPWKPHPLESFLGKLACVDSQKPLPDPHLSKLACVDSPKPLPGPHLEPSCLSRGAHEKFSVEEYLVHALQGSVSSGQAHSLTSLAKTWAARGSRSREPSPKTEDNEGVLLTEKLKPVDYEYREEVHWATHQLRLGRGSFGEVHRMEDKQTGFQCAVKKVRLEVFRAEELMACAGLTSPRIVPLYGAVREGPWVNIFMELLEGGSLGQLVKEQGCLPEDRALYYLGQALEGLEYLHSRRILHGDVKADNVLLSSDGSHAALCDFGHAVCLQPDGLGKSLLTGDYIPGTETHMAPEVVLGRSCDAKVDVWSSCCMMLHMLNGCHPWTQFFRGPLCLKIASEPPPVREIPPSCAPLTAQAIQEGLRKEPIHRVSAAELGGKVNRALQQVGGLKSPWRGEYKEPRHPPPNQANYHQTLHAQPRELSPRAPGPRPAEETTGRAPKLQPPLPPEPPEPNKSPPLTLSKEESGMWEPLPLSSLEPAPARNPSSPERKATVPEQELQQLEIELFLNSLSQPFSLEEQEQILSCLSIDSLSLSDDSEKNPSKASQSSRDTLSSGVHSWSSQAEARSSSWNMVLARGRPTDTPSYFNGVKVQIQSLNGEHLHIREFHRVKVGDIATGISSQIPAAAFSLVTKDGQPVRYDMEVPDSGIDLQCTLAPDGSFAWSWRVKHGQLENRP

CN1CCC(O)(C#Cc2cccc(-c3nc(C(N)=O)cn4ccnc34)c2)C1=O (stereo in doubt) [Example 45, 8-(3-[2-[(3S)-3-hydroxy-1-methyl-2-oxopyrrolidin-3-yl]ethynyl]phenyl)imidazo [1,2-a]pyrazine-6-carboxamide]
IC50 [1]: > 20000 nM
Ki [2]: 0.39 nM
IC50 [3]: 122 nM

CN1CC[C@@](O)(C#Cc2cccc(-c3cccc(C(N)=O)n3)c2)C1=O [Example 1, 6-[3-[2-[(3R)-3-hydroxy-1-methyl-2-oxo-pyrrolidin-3-yl]ethynyl]phenyl]pyridine-2-carboxamide]
IC50 [1]: > 20000 nM
IC50 [3]: 93.2 nM

CN1CC[C@@](O)(C#Cc2cccc(-c3nc(C(N)=O)cc(N4CCOCC4)n3)c2)C1=O [Example 2, 2-[3-[2-[(3R)-3-hydroxy-1-methyl-2-oxo-pyrrolidin-3-yl]ethynyl]phenyl]-6-morpholino-pyrimidine-4-carboxamide]
IC50 [1]: > 20000 nM
Ki [2]: 1.73 nM
IC50 [3]: 101 nM

CN1CC[C@@](O)(C#Cc2cccc(-c3ccnc(C(N)=O)n3)c2)C1=O [Example 3, 4-[3-[2-[(3R)-3-hydroxy-1-methyl-2-oxo-pyrrolidin-3-yl]ethynyl]phenyl]pyrimidine-2-carboxamide]
IC50 [1]: > 20000 nM
IC50 [3]: 674 nM

CN1CC[C@@](O)(C#Cc2cccc(-c3nc(C(N)=O)c4ccccc4n3)c2)C1=O [Example 4, 2-[3-[2-[(3R)-3-hydroxy-1-methyl-2-oxo-pyrrolidin-3-yl]ethynyl]phenyl]quinazoline-4-carboxamide]
IC50 [1]: > 20000 nM
Ki [2]: 0.05 nM
IC50 [3]: 31.9 nM

CN1CC[C@@](O)(C#Cc2cccc(-c3nc(C(N)=O)cc(N4CCCC4)n3)c2)C1=O [Example 5, 2-[3-[2-[(3R)-3-hydroxy-1-methyl-2-oxo-pyrrolidin-3-yl]ethynyl]phenyl]-6-pyrrolidin-1-yl-pyrimidine-4-carboxamide]
IC50 [1]: > 20000 nM
Ki [2]: 0.8 nM
IC50 [3]: 122 nM

CN1CC[C@@](O)(C#Cc2cccc(-c3nc(C(N)=O)cc(N(C)C)n3)c2)C1=O [Example 6, 6-(dimethylamino)-2-[3-[2-[(3R)-3-hydroxy-1-methyl-2-oxo-pyrrolidin-3-yl]ethynyl]phenyl] pyrimidine-4-carboxamide]
IC50 [1]: > 20000 nM
Ki [2]: 0.83 nM
IC50 [3]: 108 nM

CN1CC[C@@](O)(C#Cc2cccc(-c3nc(C(N)=O)cc(N4CC(F)(F)C4)n3)c2)C1=O [Example 8, 6-(3,3-difluoroazetidin-1-yl)-2-[3-[2-[(3R)-3-hydroxy-1-methyl-2-oxo-pyrrolidin-3-yl]ethynyl]phenyl]pyrimidine-4-carboxamide]
IC50 [1]: > 20000 nM
Ki [2]: 2.35 nM
IC50 [3]: 211 nM

CN1CC[C@@](O)(C#Cc2cccc(-c3nc(NC4CC4)cc(C(N)=O)n3)c2)C1=O [Example 9, 6-(cyclopropylamino)-2-[3-[2-[(3R)-3-hydroxy-1-methyl-2-oxo-pyrrolidin-3-yl]ethynyl]phenyl] pyrimidine-4-carboxamide]
IC50 [1]: > 20000 nM
Ki [2]: 1.24 nM
IC50 [3]: 270 nM

COCCN(C)c1cc(C(N)=O)nc(-c2cccc(C#C[C@]3(O)CCN(C)C3=O)c2)n1 [Example 10, 2-[3-[2-[(3R)-3-hydroxy-1-methyl-2-oxo-pyrrolidin-3-yl]ethynyl]phenyl]-6-[2-methoxyethyl(methyl)amino] pyrimidine-4-carboxamide]
IC50 [1]: > 20000 nM
Ki [2]: 1.17 nM
IC50 [3]: 266 nM

CN1CC[C@@](O)(C#Cc2cccc(-c3nc(C(N)=O)cc(N4CC5(COC5)C4)n3)c2)C1=O [Example 11, 2-[3-[2-[(3R)-3-hydroxy-1-methyl-2-oxo-pyrrolidin-3-yl]ethynyl]phenyl]-6-(6-oxa-2-azaspiro[3.3]heptan-2-yl) pyrimidine-4-carboxamide]
IC50 [1]: > 20000 nM
Ki [2]: 4.65 nM
IC50 [3]: 2500 nM

CNc1cc(C(N)=O)nc(-c2cccc(C#C[C@]3(O)CCN(C)C3=O)c2)n1 [Example 12, 2-[3-[2-[(3R)-3-hydroxy-1-methyl-2-oxo-pyrrolidin-3-yl]ethynyl]phenyl]-6-(methylamino)pyrimidine-4-carboxamide]
IC50 [1]: > 20000 nM
Ki [2]: 0.33 nM
IC50 [3]: 236 nM

Cc1cc(C(N)=O)nc(-c2cccc(C#C[C@]3(O)CCN(C)C3=O)c2)n1 [Example 13, 2-[3-[2-[(3R)-3-hydroxy-1-methyl-2-oxo-pyrrolidin-3-yl]ethynyl]phenyl]-6-methyl-pyrimidine-4-carboxamide]
IC50 [1]: > 20000 nM
Ki [2]: 0.48 nM
IC50 [3]: 382 nM

CN1CC[C@@](O)(C#Cc2cccc(-c3nc(N)cc(C(N)=O)n3)c2)C1=O [Example 14, 6-amino-2-[3-[2-[(3R)-3-hydroxy-1-methyl-2-oxo-pyrrolidin-3-yl]ethynyl]phenyl]pyrimidine-4-carboxamide]
IC50 [1]: > 20000 nM
Ki [2]: 0.38 nM
IC50 [3]: 665 nM

COc1cc(C(N)=O)nc(-c2cccc(C#C[C@]3(O)CCN(C)C3=O)c2)n1 [Example 29, 2-[3-[2-[(3R)-3-hydroxy-1-methyl-2-oxo-pyrrolidin-3-yl]ethynyl]phenyl]-6-methoxy-pyrimidine-4-carboxamide]
IC50 [1]: > 20000 nM
IC50 [3]: 46.6 nM

CN1CC[C@@](O)(C#Cc2cccc(-c3cc4ccccc4c(C(N)=O)n3)c2)C1=O [Example 40, 3-[3-[2-[(3R)-3-hydroxy-1-methyl-2-oxo-pyrrolidin-3-yl]ethynyl]phenyl] isoquinoline-1-carboxamide]
IC50 [1]: > 8000 nM
IC50 [3]: 7.8 nM

CN1CC[C@@](O)(C#Cc2cccc(-c3ccc(N)c(C(N)=O)n3)c2)C1=O [Example 63, 3-amino-6-[3-[2-[(3R)-3-hydroxy-1-methyl-2-oxo-pyrrolidin-3-yl]ethynyl]phenyl]pyridine-2-carboxamide]
IC50 [1]: ≥ 20000 nM
IC50 [3]: 10.7 nM

COc1cc(C(N)=O)nc(-c2cccc(C#C[C@]3(O)CCN(C)C3=O)c2)c1 [Example 90, 6-[3-[2-[(3R)-3-hydroxy-1-methyl-2-oxo-pyrrolidin-3-yl]ethynyl]phenyl]-4-methoxy-pyridine-2-carboxamide]
IC50 [1]: ≥ 20000 nM
IC50 [3]: 16.8 nM

CN1CC[C@@](O)(C#Cc2cccc(-c3cncc(C(N)=O)n3)c2)C1=O [Example 154, 6-[3-[2-[(3R)-3-hydroxy-1-methyl-2-oxo-pyrrolidin-3-yl]ethynyl]phenyl]pyrazine-2-carboxamide]
IC50 [1]: > 2000 nM
IC50 [3]: 400 nM

CN1CC[C@@](O)(C#Cc2cccc(-c3nc(C(N)=O)c4cnn(C5CC5)c4n3)c2)C1=O [Example 193, 1-cyclopropyl-6-[3-[2-[(3R)-3-hydroxy-1-methyl-2-oxo-pyrrolidin-3-yl]ethynyl]phenyl]pyrazolo[3,4-d] pyrimidine-4-carboxamide]
Ki [2]: < 0.1 nM

CN1CC[C@@](O)(C#Cc2cc(F)c(F)c(-c3ccc(N)c(C(N)=O)n3)c2)C1=O [Example 194, 3-amino-6-[2,3-difluoro-5-[2-[(3R)-3-hydroxy-l-methyl-2-oxo-pyrrolidin-3-yl]ethynyl]phenyl]pyridine-2-carboxamide]
Ki [2]: < 0.05 nM

Cc1cc(-c2cccc(C#C[C@]3(O)CCN(C)C3=O)c2)nc(C(N)=O)c1O [Example 195, 3-hydroxy-6-[3-[2-[(3R)-3-hydroxy-1-methyl-2-oxo-pyrrolidin-3-yl]ethynyl]phenyl]-4-methyl-pyridine-2-carboxamide]
Ki [2]: < 0.05 nM

CN1CC[C@@](O)(C#Cc2cc(-c3cnc(N)c(C(N)=O)n3)c3ncsc3c2)C1=O [Example 196, 3-amino-6-[6-[2-[(3R)-3-hydroxy-1-methyl-2-oxo-pyrrolidin-3-yl]ethynyl]-1,3-benzothiazol-4-yl]pyrazine-2-carboxamide]
Ki [2]: 1 nM

CN1CC[C@@](O)(C#Cc2cccc(-c3cc(CO)cc(C(N)=O)n3)c2)C1=O [Example 197, 4-(hydroxymethyl)-6-[3-[2-[(3R)-3-hydroxy-1-methyl-2-oxo-pyrrolidin-3-yl]ethynyl]phenyl]pyridine-2-carboxamide]
Ki [2]: 0.8 nM

COCc1cc(C(N)=O)nc(-c2cccc(C#C[C@]3(O)CCN(C)C3=O)c2)c1 [Example 198, 6-[3-[2-[(3R)-3-hydroxy-1-methyl-2-oxo-pyrrolidin-3-yl]ethynyl]phenyl]-4-(methoxymethyl)pyridine-2-carboxamide]
Ki [2]: 0.5 nM

CCOc1cc(C(N)=O)nc(-c2cccc(C#C[C@]3(O)CCN(C)C3=O)c2)c1 [Example 199]
Ki [2]: 0.4 nM

CN1CC[C@@](O)(C#Cc2cccc(-c3cc(N4CC(F)(F)C4)cc(C(N)=O)n3)c2)C1=O [Example 200, 4-(3,3-difluoroazetidin-1-yl)-6-[3-[2-[(3R)-3-hydroxy-1-methyl-2-oxo-pyrrolidin-3-yl]ethynyl]phenyl]pyridine-2-carboxamide]
Ki [2]: < 0.05 nM

Source: patent publication US20160185797A1, “ALKYNYL ALCOHOLS AND METHODS OF USE” (Genentech, Inc., priority 2013, published 2016)
